Data: ChEMBL document CHEMBL1145744, “Anti-HIV agents. Part 55: 3'R,4'R-Di-(O)-(-)-camphanoyl-2',2'-dimethyldihydropyrano[2,3-f]chromone (DCP), a novel anti-HIV agent” (Bioorg Med Chem Lett, 2003)

What was measured:
[1] = In vitro therapeutic index was measured from IC50 to EC50 towards HIV-1 replication in cell growth in H9 lymphocytes; type: functional
H9 = experiment: Concentration that inhibits HIV-1 replication in cell growth in H9 lymphocytes; type: functional, cell-based; conditions: Homo sapiens

Row | Structure (SMILES) | TI [1] | EC50 (H9) | IC50 (H9)
1 | CC1(C)Oc2ccc3ccc(=O)oc3c2[C@@H](OC(=O)C23CCC(C)(C(=O)O2)C3(C)C)[C@H]1OC(=O)C12CCC(C)(C(=O)O1)C2(C)C (stereo partly specified) | 136719 |  | 
2 | CC1(C)Oc2ccc3c(=O)ccoc3c2[C@@H](OC(=O)C23CCC(C)(C(=O)O2)C3(C)C)[C@H]1OC(=O)C12CCC(C)(C(=O)O1)C2(C)C (stereo partly specified) | 14500 | 0.000678 µM | 9.83 µM
3 | Cc1cn([C@H]2C[C@H](N=[N+]=[N-])[C@@H](CO)O2)c(=O)[nH]c1=O [ZIDOVUDINE] | 11200 |  | 500 µM
